Experimental data taken from patent US20230159556A1, “NOVEL PROTEIN KINASE INHIBITORS” (TENOVA PHARMACEUTICALS INC., priority 2020, published 2023).
Like-named read-outs stand apart in the source and are kept apart here.

What was measured:
EGFR_L858R/T790M/C797S = target: T1, EGFR_L858R/T790M/C797S (Homo sapiens, UniProt P00533, C797S/L858R/T790M); test: In vitro biochemical kinase assay (33P-ATP filter-binding, Reaction Biology)
T1 construct: Reaction Biology Corporation (contract assay provider)
Protocol: (§1) The biochemical kinase assay was performed at Reaction Biology Corporation (www.reactionbiology.com, Malvern, Pa.) following procedures described in the reference (Anastassiadis, T, et al, Nature Biotechnology, 2011, 29, 1039). Base Reaction buffer includes 20 mM Hepes (pH 7.5), 10 mM MgCl2, 1 mM EGTA, 0.02% Brij35, 0.02 mg/ml BSA, 0.1 mM Na3VO4, 2 mM DTT and 1% DMSO. Required cofactors are added individually to each kinase reaction. Testing compounds were dissolved in 100% DMSO to specific concentration. The serial dilution was conducted by Integra Viaflo Assist in DMSO. Compounds in 100% DMSO are into the kinase reaction mixture by Acoustic technology (Echo550; nanoliter range), incubate for 20 min at room temperature, followed by ^33P-ATP and incubation for 2 hours at room temperature. Radioactivity was then detected by filter-binding method. Kinase activity data were expressed as the percent remaining kinase activity in test samples compared to vehicle (dimethyl sulfoxide) reactions. IC50 values and curve fits were obtained using Prism (GraphPad Software).

EGFR_WT = target: T2, EGFR_WT (Homo sapiens, UniProt P00533); test: as above
T2 construct: Reaction Biology Corporation (contract assay provider)
Protocol: as §1

[1] = target: Ba/F3_EGFR_del19/T790M/C797S cell (Homo sapiens, UniProt P00533, T790M/C797S, cells depend on it, form not given); test: BaF3 cell proliferation assay (CelltiterGlo, 72 hr); assay type: cell-based; details: 72 hr incubation; read-out: IC50 (nM, Ba/F3_EGFR_del19/T790M/C797S cell proliferation)
Protocol: (§2) The BaF3 cell proliferation assay was performed at Pharmaron (www.pharmaron.com, Beijing, China). The Ba/F3_WT and Ba/F3_Del19/T790M/C797S cell lines were maintained in 1640 medium containing 10% FBS, 1*PS and 1*Glutamax. Only cells with viability greater than 90% are used for assays. Dispense 30 μl of cell suspension at 700/well into 384 well microplate, add 30 nl compound solution into 384 cell plate by Echo, cells were incubated for 72 hr in 37° C./5% CO2 incubator, add 30 μl reagent CelltiterGlo assay kit (CTG, Promega) per well and shake plates, incubate the plate (avoiding light) at 37° C./5% CO2 for 30 min. and read the luminescence by Envision. The luminescence values were converted to % Inhibition. Calculate IC50 by fitting % inhibition values and log of compound concentrations to nonlinear regression (dose response−variable slope) with Graphpad 5.0.
(§3) Y=Bottom+(Top−Bottom)/(1+10^((Log IC50−X)*HillSlope))
(§4) X: log of inhibitor concentration; Y: % Inhibition.

Ba/F3_WT cell = test: as above; assay type: cell-based; details: Mus musculus, 72 hr incubation
Protocol: as §2, §3, §4

[2] = ether bond, 25.0 °C, 16.0 h
[3] = from COc1cc(N2CCN(C)CC2)c(CCCO)cc1Nc1ncc(Cl)c(Nc2ccc(O)cc2S(C)(=O)=O)n1; ether bond; 16-membered ring; PPh3/DIAD; THF; 18.8 mM

T1 sequence (P00533 25-1210 T790M/C797S/L858R): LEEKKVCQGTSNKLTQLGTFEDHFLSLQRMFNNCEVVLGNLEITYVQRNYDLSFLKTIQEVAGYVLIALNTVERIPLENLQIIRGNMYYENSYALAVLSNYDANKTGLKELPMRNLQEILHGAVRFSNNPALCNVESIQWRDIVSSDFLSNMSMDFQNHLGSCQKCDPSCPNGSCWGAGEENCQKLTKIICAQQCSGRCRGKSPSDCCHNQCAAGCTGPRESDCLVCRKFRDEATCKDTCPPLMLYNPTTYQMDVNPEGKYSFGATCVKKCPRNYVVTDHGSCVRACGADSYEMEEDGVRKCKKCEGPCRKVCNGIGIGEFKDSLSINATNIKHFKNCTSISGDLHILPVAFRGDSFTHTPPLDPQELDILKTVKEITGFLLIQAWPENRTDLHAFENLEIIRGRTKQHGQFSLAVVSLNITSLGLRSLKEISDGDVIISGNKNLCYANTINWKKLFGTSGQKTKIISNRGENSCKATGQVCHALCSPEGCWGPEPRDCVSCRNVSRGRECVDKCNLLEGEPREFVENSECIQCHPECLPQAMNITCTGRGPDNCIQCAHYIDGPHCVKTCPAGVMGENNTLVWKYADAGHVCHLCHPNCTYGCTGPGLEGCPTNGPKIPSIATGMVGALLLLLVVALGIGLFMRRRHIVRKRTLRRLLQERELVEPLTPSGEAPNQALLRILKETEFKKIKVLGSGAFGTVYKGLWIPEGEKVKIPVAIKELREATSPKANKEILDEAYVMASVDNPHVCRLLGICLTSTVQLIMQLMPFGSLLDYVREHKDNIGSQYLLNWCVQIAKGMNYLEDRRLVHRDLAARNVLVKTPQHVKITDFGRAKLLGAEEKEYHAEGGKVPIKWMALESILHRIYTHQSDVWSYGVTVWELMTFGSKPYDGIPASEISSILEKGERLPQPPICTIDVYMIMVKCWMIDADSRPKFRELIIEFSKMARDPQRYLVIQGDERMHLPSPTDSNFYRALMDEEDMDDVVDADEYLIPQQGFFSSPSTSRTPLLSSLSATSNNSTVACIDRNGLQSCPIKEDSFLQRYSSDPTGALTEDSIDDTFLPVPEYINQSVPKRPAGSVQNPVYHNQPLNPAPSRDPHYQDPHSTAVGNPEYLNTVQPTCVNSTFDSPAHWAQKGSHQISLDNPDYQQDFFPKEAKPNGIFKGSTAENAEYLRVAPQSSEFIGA
Chain of Ba/F3_EGFR_del19/T790M/C797S cell (P00533 with tags, fused parts or gaps DEL746-750/T790M/C797S, form open): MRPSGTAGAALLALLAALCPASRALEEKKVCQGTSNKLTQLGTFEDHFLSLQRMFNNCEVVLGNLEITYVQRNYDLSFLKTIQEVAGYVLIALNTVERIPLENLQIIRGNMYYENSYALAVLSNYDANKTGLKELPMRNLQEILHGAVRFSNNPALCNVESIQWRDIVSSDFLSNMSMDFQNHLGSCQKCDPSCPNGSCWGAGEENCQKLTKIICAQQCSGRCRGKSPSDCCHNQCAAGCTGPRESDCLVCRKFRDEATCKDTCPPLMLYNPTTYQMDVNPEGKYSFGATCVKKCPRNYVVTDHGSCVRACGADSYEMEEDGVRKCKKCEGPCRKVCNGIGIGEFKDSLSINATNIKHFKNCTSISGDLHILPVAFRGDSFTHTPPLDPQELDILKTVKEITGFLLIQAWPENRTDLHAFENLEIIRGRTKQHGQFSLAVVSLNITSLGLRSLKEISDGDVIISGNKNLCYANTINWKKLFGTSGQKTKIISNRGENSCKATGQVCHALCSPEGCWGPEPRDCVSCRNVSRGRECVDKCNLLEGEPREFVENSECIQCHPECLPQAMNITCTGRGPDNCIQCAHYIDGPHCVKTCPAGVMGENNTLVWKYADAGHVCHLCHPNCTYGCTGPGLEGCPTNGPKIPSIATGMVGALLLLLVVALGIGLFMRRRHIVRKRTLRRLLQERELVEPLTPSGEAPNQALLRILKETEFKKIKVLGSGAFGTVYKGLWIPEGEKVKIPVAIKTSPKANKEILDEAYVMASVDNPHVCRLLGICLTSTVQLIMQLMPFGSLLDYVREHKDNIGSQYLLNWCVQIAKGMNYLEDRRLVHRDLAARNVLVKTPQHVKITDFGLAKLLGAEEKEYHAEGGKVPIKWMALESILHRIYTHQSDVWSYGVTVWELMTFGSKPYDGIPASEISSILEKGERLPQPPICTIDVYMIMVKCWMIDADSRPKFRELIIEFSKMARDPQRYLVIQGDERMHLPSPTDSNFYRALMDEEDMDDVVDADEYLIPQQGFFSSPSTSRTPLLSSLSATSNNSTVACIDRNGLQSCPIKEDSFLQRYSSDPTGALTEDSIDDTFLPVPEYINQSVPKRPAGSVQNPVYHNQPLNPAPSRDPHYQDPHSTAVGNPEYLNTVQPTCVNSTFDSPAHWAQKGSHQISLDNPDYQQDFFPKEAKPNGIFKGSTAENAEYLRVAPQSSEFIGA
T2 sequence (P00533 25-1210): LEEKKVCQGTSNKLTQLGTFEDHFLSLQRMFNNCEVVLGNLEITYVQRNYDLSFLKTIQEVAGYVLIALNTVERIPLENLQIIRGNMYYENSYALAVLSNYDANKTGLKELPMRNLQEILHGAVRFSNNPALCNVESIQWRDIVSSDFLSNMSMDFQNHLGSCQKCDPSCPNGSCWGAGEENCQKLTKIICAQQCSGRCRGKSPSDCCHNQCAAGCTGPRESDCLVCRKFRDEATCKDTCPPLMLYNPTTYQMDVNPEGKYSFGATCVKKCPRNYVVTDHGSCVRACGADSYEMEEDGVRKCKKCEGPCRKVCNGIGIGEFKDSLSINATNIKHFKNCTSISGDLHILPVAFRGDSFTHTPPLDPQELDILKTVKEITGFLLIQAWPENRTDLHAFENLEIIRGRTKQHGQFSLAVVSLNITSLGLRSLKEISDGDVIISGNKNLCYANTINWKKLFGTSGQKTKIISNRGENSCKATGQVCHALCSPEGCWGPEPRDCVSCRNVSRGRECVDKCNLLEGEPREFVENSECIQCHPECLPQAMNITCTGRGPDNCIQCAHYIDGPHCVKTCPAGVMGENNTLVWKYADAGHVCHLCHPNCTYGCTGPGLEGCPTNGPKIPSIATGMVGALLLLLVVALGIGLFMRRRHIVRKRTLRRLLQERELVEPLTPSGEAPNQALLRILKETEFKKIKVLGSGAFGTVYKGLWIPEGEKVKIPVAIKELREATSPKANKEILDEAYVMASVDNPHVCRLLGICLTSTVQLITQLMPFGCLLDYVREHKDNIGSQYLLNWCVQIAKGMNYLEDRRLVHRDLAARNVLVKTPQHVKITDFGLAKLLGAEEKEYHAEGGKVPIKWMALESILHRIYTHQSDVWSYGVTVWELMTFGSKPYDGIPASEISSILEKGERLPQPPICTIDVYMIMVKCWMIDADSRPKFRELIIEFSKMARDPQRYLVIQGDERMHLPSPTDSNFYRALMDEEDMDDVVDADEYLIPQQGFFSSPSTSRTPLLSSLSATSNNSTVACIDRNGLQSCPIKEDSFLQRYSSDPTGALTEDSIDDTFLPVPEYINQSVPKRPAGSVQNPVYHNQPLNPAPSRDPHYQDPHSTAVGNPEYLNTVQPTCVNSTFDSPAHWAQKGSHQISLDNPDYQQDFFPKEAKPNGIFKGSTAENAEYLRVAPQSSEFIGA

Row | Structure (SMILES) | IC50 (EGFR_L858R/T790M/C797S) [nM] | IC50 (EGFR_WT) [nM] | GI50 [1] [nM] | IC50 (Ba/F3_WT cell) [nM] | ring closure, yield of all isomers ([2]; from COc1cc(N2CCC(N3CCN(C)CC3)CC2)c(NC(=O)CCCBr)cc1Nc1ncc(Cl)c(Nc2ccc(O)cc2N(C)S(C)(=O)=O)n1, K2CO3/KI, DMF, 20.0 mM) [%] | ring closure, isolated yield [3] [%] | ring closure, yield of all isomers ([2]; from COc1cc(N2CCN(C)CC2)c(CCCO)cc1Nc1ncc(Cl)c(Nc2ccc(O)cc2S(C)(=O)=O)n1, DIAD/PPh3, THF, 18.8 mM) [%]
1 | COc1cc(N2CCC(N3CCN(C)CC3)CC2)c2cc1Nc1ncc(Cl)c(n1)Nc1ccc(cc1N(C)S(C)(=O)=O)OCCCC(=O)N2 [Compound A39, N-(3^5-chloro-1^6-methoxy-1^4-(4-(4-methylpiperazin-1-yl)piperidin-1-yl)-10-oxo-6-oxa-2,4,11-triaza-3(2,4)-pyrimidina-1(1,3),5(1,4)-dibenzenacycloundecaphane-5^2-yl)-N-methylmethanesulfonamide] | 7.1 |  |  |  | 4.2 |  | 
2 | COc1cc(N2CCN(C)CC2)c2cc1Nc1ncc(Cl)c(n1)Nc1ccc(cc1P(C)(C)=O)OCCCCC2 [Compound A18, (3^5-chloro-1^6-methoxy-1^4-(4-methylpiperazin-1-yl)-6-oxa-2,4-diaza-3(2,4)-pyrimidina-1(1,3),5(1,4)-dibenzenacycloundecaphane-5^2-yl)dimethylphosphine oxide] | 145 |  | 520 | > 10000 |  |  | 
3 | COc1cc(N2CCC(N3CCN(C)CC3)CC2)c2cc1Nc1ncc(Br)c(n1)Nc1ccc(cc1P(C)(C)=O)OCCCCCC2 [Compound A34, (3^5-bromo-1^6-methoxy-1^4-(4-(4-methylpiperazin-1-yl)piperidin-1-yl)-6-oxa-2,4-diaza-3(2,4)-pyrimidina-1(1,3),5(1,4)-dibenzenacyclododecaphane-5^2-yl)dimethylphosphine oxide] | 2 |  | 142 | 3820 |  |  | 
4 | COc1cc(N2CCN(C)CC2)c2cc1Nc1ncc(Cl)c(n1)Nc1ccc(cc1N(C)S(C)(=O)=O)OCCCCCC2 [Compound A14, N-(3^5-chloro-1^6-methoxy-1^4-(4-methylpiperazin-1-yl)-6-oxa-2,4-diaza-3(2,4)-pyrimidina-1(1,3),5(1,4)-dibenzenacyclododecaphane-5^2-yl)-N-methylmethanesulfonamide] | 16.7 |  | 897 | 2960 |  |  | 
5 | CCN(c1cc2ccc1Nc1nc(ncc1Br)Nc1cc(c(N3CCC(N4CCN(C)CC4)CC3)cc1OC)CCCCCO2)S(C)(=O)=O [Compound A30, N-(3^5-bromo-1^6-methoxy-1^4-(4-(4-methylpiperazin-1-yl)piperidin-1-yl)-6-oxa-2,4-diaza-3(2,4)-pyrimidina-1(1,3),5(1,4)-dibenzenacycloundecaphane-5^2-yl)-N-ethylmethanesulfonamide] | 0.6 | 14.9 | 22.4 | 1690 |  |  | 
6 | COc1cc(N2CCN(C)CC2)c2cc1Nc1ncc(Br)c(n1)Nc1ccc(cc1P(C)(C)=O)OCCCC2 [Compound A35, (3^5-bromo-1^6-methoxy-1^4-(4-methylpiperazin-1-yl)-6-oxa-2,4-diaza-3(2,4)-pyrimidina-1(1,3),5(1,4)-dibenzenacyclodecaphane-5^2-yl)dimethylphosphine oxide] | 289 |  | 1050 | 2240 |  |  | 
7 | COc1cc(N2CCC(N(C)C)C2)c2cc1Nc1ncc(Cl)c(n1)Nc1ccc(cc1N(C)S(C)(=O)=O)OCCCCC2 (stereo not drawn) [Compound A27, N-(3^5-chloro-1^4-(3-(dimethylamino)pyrrolidin-1-yl)-1^6-methoxy-6-oxa-2,4-diaza-3(2,4)-pyrimidina-1(1,3),5(1,4)-dibenzenacycloundecaphane-5^2-yl)-N-methylmethanesulfonamide] | 2.3 |  | 330 | 3400 |  |  | 
8 | COc1cc(N2CCN(C)CC2)c2cc1Nc1ncc(Cl)c(n1)Nc1ccc(cc1S(C)(=O)=O)OCCC2 [Compound A1, 3^5-chloro-1^6-methoxy-1^4-(4-methylpiperazin-1-yl)-5^2-(methylsulfonyl)-6-oxa-2,4-diaza-3(2,4)-pyrimidina-1(1,3),5(1,4)-dibenzenacyclononaphane] | 5580 |  |  |  |  | 6 | 6
9 | COc1cc(N2CCC(N3CCN(C)CC3)CC2)c2cc1Nc1ncc(Br)c(n1)Nc1ccc(cc1P(C)(C)=O)OCCCCC2 [Compound A33, (3^5-bromo-1^6-methoxy-1^4-(4-(4-methylpiperazin-1-yl)piperidin-1-yl)-6-oxa-2,4-diaza-3(2,4)-pyrimidina-1(1,3),5(1,4)-dibenzenacycloundecaphane-5^2-yl)dimethylphosphine oxide] | 1.8 | 413 | 75 | 6490 |  |  | 

Second part, led by results:

Row | IC50 (EGFR_L858R/T790M/C797S) [nM] | IC50 (EGFR_WT) [nM] | GI50 [1] [nM] | IC50 (Ba/F3_WT cell) [nM] | Structure (SMILES) | ring closure, yield of all isomers ([2]; from COc1cc(N2CCC(N3CCN(C)CC3)CC2)c(NC(=O)CCCBr)cc1Nc1ncc(Cl)c(Nc2ccc(O)cc2N(C)S(C)(=O)=O)n1, K2CO3/KI, DMF, 20.0 mM) [%] | ring closure, isolated yield [3] [%] | ring closure, yield of all isomers ([2]; from COc1cc(N2CCN(C)CC2)c(CCCO)cc1Nc1ncc(Cl)c(Nc2ccc(O)cc2S(C)(=O)=O)n1, DIAD/PPh3, THF, 18.8 mM) [%]
10 | 2.7 | 10.8 | 63 | 3330 | COc1cc(N2CCC(N(C)C)CC2)c2cc1Nc1ncc(Cl)c(n1)Nc1ccc(cc1N(C)S(C)(=O)=O)OCCCCC2 [Compound A24, N-(3^5-chloro-1^4-(4-(dimethylamino)piperidin-1-yl)-1^6-methoxy-6-oxa-2,4-diaza-3(2,4)-pyrimidina-1(1,3),5(1,4)-dibenzenacycloundecaphane-5^2-yl)-N-methylmethanesulfonamide] |  |  | 
11 | 9.86 |  | 135 | 1180 | COc1cc(N2CCN(C)CC2)c2cc1Nc1ncc(Cl)c(n1)Nc1ccc(cc1N(C)S(C)(=O)=O)OCCCCC2 [Compound A3, N-(3^5-chloro-1^6-methoxy-1^4-(4-methylpiperazin-1-yl)-6-oxa-2,4-diaza-3(2,4)-pyrimidina-1(1,3),5(1,4)-dibenzenacycloundecaphane-5^2-yl)-N-methylmethanesulfonamide] |  |  | 
12 | 0.6 |  | 106 | 4840 | COc1cc(N2CCC(N3CCOCC3)CC2)c2cc1Nc1ncc(Cl)c(n1)Nc1ccc(cc1N(C)S(C)(=O)=O)OCCCCC2 [Compound A32, N-(3^5-chloro-1^6-methoxy-1^4-(4-morpholinopiperidin-1-yl)-6-oxa-2,4-diaza-3(2,4)-pyrimidina-1(1,3),5(1,4)-dibenzenacycloundecaphane-5^2-yl)-N-methylmethanesulfonamide] |  |  | 
13 | 0.5 |  | 195 | 2660 | COc1cc(N2CCC(N3CCN(C)CC3)CC2)c2cc1Nc1ncc(Cl)c(n1)Nc1ccc(cc1N(C)S(C)(=O)=O)OCCCCCC2 [Compound A15, N-(3^5-chloro-1^6-methoxy-1^4-(4-(4-methylpiperazin-1-yl)piperidin-1-yl)-6-oxa-2,4-diaza-3(2,4)-pyrimidina-1(1,3),5(1,4)-dibenzenacyclododecaphane-5^2-yl)-N-methylmethanesulfonamide] |  |  | 
14 | 2.6 |  | 89 | 1450 | COc1cc(N2CCN(C3CCN(C)CC3)CC2)c2cc1Nc1ncc(Cl)c(n1)Nc1ccc(cc1N(C)S(C)(=O)=O)OCCCCC2 [Compound A20, N-(3^5-chloro-1^6-methoxy-1^4-(4-(1-methylpiperidin-4-yl)piperazin-1-yl)-6-oxa-2,4-diaza-3(2,4)-pyrimidina-1(1,3),5(1,4)-dibenzenacycloundecaphane-5^2-yl)-N-methylmethanesulfonamide] |  |  | 
15 | 0.5 | 5.9 | 34 | 1390 | COc1cc(N2CCC(N3CCN(C)CC3)CC2)c2cc1Nc1ncc(Cl)c(n1)Nc1ccc(cc1N(C)S(C)(=O)=O)OCCCCC2 [Compound A9, N-(3^5-chloro-1^6-methoxy-1^4-(4-(4-methylpiperazin-1-yl)piperidin-1-yl)-6-oxa-2,4-diaza-3(2,4)-pyrimidina-1(1,3),5(1,4)-dibenzenacycloundecaphane-5^2-yl)-N-methylmethanesulfonamide] |  |  | 
